{"source": "patent EP0411494A2", "about": "“Ergoline derivatives having dopaminergic activity” (priority 1989, dated 1991)", "key": {"reserpinized rat": {"tested_on": "reserpinized rat", "test": "Antihyperprolactinemic activity in the reserpinized rat", "assay_type": "in vivo", "conditions": "for Plasmatic prolactin % reduction: reserpinized rat"}, "guinea pig platelet": {"tested_on": "guinea pig platelet", "test": "In vitro guinea pig platelet aggregation induced by ADP", "assay_type": "cell-based", "conditions": "guinea pig platelets"}, "mouse": {"tested_on": "mouse", "test": "Locomotor activity in the mouse", "assay_type": "in vivo"}, "rat seminal vesicle": {"tested_on": "rat seminal vesicle", "test": "Adrenolytic activity in the rat seminal vesicle test in vitro", "text": "Most of the compounds of formula (I) have a marked adrenolytic activity in the rat seminal vesicle test in vitro."}, "[1]": {"tested_on": "isolated uterus of female rat", "test": "Antiserotonin activity in vitro on isolated uterus of female rat", "conditions": "for ED₅₀: antiserotonin activity, isolated uterus of female rat", "text": "All the compounds of the invention have a marked antiserotonin activity in vitro test on isolated uterus of female rat."}, "[2]": {"tested_on": "Spontaneously hypertensive rats (SHR)", "test": "Antihypertensive activity on spontaneously hypertensive rats (SHR)", "assay_type": "in vivo, rat", "conditions": "for Mean arterial pressure % reduction: SHR", "text": "All the compounds of formula (I) have antihypertensive activity on Spontaneously hypertensive rats (SHR), as clearly shown by the results reported in the following Table III."}, "rat": {"tested_on": "rat", "test": "Stereotypy test in the rat", "assay_type": "in vivo", "conditions": "dose 10 mg/kg i.p."}, "[3]": {"conditions": "After 1 hour, dose 0.25 mg/kg os"}, "[4]": {"conditions": "After 2 hours, dose 0.50 mg/kg os"}}, "data": [{"compound": "CN(C[C@@H]1C=C2c3cccc4[nH]cc(c34)C[C@H]2N(C)C1)C1CC1", "note": "[P 1427, N-methyl-N-cyclopropyl-9,10-didehydro-6-methylergoline-8β-methanamine]", "values": [{"measurement": "Plasmatic prolactin % reduction", "setting": "reserpinized rat; [3]", "value": 67.2, "unit": "%"}, {"measurement": "Plasmatic prolactin % reduction", "setting": "reserpinized rat; [4]", "value": 86.6, "unit": "%"}, {"measurement": "antihyperprolactinemic activity", "setting": "reserpinized rat; result in words", "value": "interesting"}, {"measurement": "Platelet aggregation % reduction", "setting": "guinea pig platelet; Dose 40 mcg/ml", "value": 25, "unit": "%"}, {"measurement": "% inhibition", "setting": "mouse; dose 20 mg/kg i.p.", "value": 92.7, "unit": "%"}, {"measurement": "ED₅₀", "setting": "rat seminal vesicle", "value": 0.70, "unit": "µg/mL"}, {"measurement": "ED₅₀", "setting": "[1]", "value": 0.004, "unit": "µg/mL"}, {"measurement": "antiserotonin activity", "setting": "[1]; result in words", "value": "high"}, {"measurement": "Mean arterial pressure % reduction", "setting": "[2]; dose = 1 mg/kg i.p.", "value": 35.6, "unit": "%"}, {"measurement": "Mean arterial pressure % reduction", "setting": "[2]; dose = 3 mg/kg i.p.", "value": 32.4, "unit": "%"}, {"measurement": "hypotensive / antihypertensive activity", "setting": "[2]; result in words", "value": "high"}]}, {"compound": "α-Bromocryptine [reference compound]", "values": [{"measurement": "Plasmatic prolactin % reduction", "setting": "reserpinized rat; [3]", "value": 78.2, "unit": "%"}, {"measurement": "Plasmatic prolactin % reduction", "setting": "reserpinized rat; [4]", "value": 80.9, "unit": "%"}, {"measurement": "Platelet aggregation % reduction", "setting": "guinea pig platelet; Dose 80 mcg/ml", "value": 25, "unit": "%"}, {"measurement": "% inhibition", "setting": "mouse; dose 10 mg/kg i.p.", "value": 78.7, "unit": "%"}, {"measurement": "Mean score", "setting": "rat", "value": 2.25}, {"measurement": "ED₅₀", "setting": "[1]", "value": 0.470, "unit": "µg/mL"}]}]}
